From patent US20100130604A1, “USE OF ROSMARINIC ACID IN MANUFACTURE OF MEDICAMENTS FOR TREATING OR PREVENTING HEPATIC AND RENAL DISEASES” (SHANGDONG LUYE NATURAL DRUG RESEARCH AND DEVELOPMENT CO., …, priority 2006, published 2010)

Legend:
CTGF = experiment: Western blot of intracellular CTGF protein expression in PTECs; type: cell-based; conditions: for CTGF expression: 72 h, relative OD of band
Experimental: Western blot method was used to detect intracellular CTGF expression. PTEC cells at logarithmic phase were seeded to 96-well plate at the density of 1×10^5/mL. The medium was replaced with serum-free DMEM 24 hours later and the cell culture was cultured statically for 24 hours. Treat the wells as mentioned above. 72 hours later, cellular protein was extracted from the cell lysate according to modified Lowry method (Peterson G L. A simplification of the protein assay method of Lowry et al, which is more generally applicable. Anal Biochem, 1977, 83:346). 75 μg of total protein was loaded on each lane and all lanes were subject to 12% SDS-PAGE before the protein was transferred onto nitrocellulose membrane. Dye with Ponceau S (Sigma) to confirm transference and mark relative molecular weight standards. The membrane was then blocked in 5% solution of skimmed milk powder in TBST for 1 hour at room temperature. After washing, multiclonal goat-anti-rat anti-CTGF antibody (1:500, from Santa Cruz Co. Ltd.) was added and incubated overnight at 4° C. Then HRP-labeled anti-goat IgG secondary antibody (1:2 500, from Santa Cruz Co. Ltd.) was added and incubated at 37° C. for 1 hour. After rinsing, develop with 3,3-diaminobenzidine (DAB). Relative OD values of each band were analysed and the data are presented as χ±s. SPSS software was used in statistical analysis. ANOVA was applied for multi-group comparison.

CRF rats = experiment: CRF induced by 5/6 nephrectomy in rats; type: in vivo, Sprague Dawley rats

## O=C(/C=C/c1ccc(O)c(O)c1)O[C@H](Cc1ccc(O)c(O)c1)C(=O)O [RA, R(+)2-{[3-(3,4-dihydroxylphenyl-(oxo-2-propenyl)oxy]3,4-dihydroxylphenylpropionic acid]}]
CTGF; 10 mg/L and 50 mg/L RA
  intracellular CTGF expression compared with the HG group: significantly down-regulated
CTGF; HG + 10 mg/L RA
  CTGF expression: 5244 ± 106
CTGF; HG + 50 mg/L RA
  CTGF expression: 5345 ± 95
CRF rats; 4 weeks, i.v. 2.5 mg/kg
  Serum creatinine: 1.32 ± 0.18 mg/dL
  Serum urea nitrogen: 21.12 ± 2.40 mg/dL
CRF rats; 4 weeks, i.v. 5 mg/kg
  Serum creatinine: 1.29 ± 0.31 mg/dL
  Serum urea nitrogen: 16.90 ± 4.09 mg/dL
CRF rats; 4 weeks, i.v. 25 mg/kg
  Serum creatinine: 1.12 ± 0.24 mg/dL
  Serum urea nitrogen: 14.63 ± 3.25 mg/dL
CRF rats; 4 weeks, i.v. 75 mg/kg
  Serum creatinine: 1.02 ± 0.19 mg/dL
  Serum urea nitrogen: 13.39 ± 2.45 mg/dL
CRF rats; 4 weeks, i.v. 150 mg/kg
  Serum creatinine: 1.01 ± 0.33 mg/dL
  Serum urea nitrogen: 12.85 ± 3.88 mg/dL
CRF rats; 4 weeks, p.o. 5 mg/kg
  Serum creatinine: 1.55 ± 0.16 mg/dL
CRF rats; 4 weeks, p.o. 10 mg/kg
  Serum creatinine: 1.42 ± 0.24 mg/dL
  Serum urea nitrogen: 18.60 ± 3.11 mg/dL
CRF rats; 4 weeks, p.o. 50 mg/kg
  Serum creatinine: 1.53 ± 0.15 mg/dL
CRF rats; 4 weeks, p.o. 150 mg/kg
  Serum creatinine: 1.30 ± 0.22 mg/dL
  Serum urea nitrogen: 17.01 ± 3.95 mg/dL
CRF rats; 4 weeks, p.o. 300 mg/kg
  Serum creatinine: 1.29 ± 0.28 mg/dL
  Serum urea nitrogen: 16.76 ± 4.30 mg/dL
CRF rats; 8 weeks, i.v. 2.5 mg/kg
  Serum creatinine: 1.89 ± 0.22 mg/dL
  Serum urea nitrogen: 22.15 ± 3.09 mg/dL
CRF rats; 8 weeks, i.v. 5 mg/kg
  Serum creatinine: 1.75 ± 0.37 mg/dL
  Serum urea nitrogen: 21.73 ± 5.26 mg/dL
CRF rats; 8 weeks, i.v. 25 mg/kg
  Serum creatinine: 1.51 ± 0.32 mg/dL
  Serum urea nitrogen: 19.25 ± 3.19 mg/dL
CRF rats; 8 weeks, i.v. 75 mg/kg
  Serum creatinine: 1.39 ± 0.26 mg/dL
  Serum urea nitrogen: 15.07 ± 3.45 mg/dL
CRF rats; 8 weeks, i.v. 150 mg/kg
  Serum creatinine: 1.37 ± 0.44 mg/dL
  Serum urea nitrogen: 14.85 ± 3.88 mg/dL
CRF rats; 8 weeks, p.o. 5 mg/kg
  Serum creatinine: 2.09 ± 0.22 mg/dL
CRF rats; 8 weeks, p.o. 10 mg/kg
  Serum creatinine: 2.06 ± 0.21 mg/dL
  Serum urea nitrogen: 25.65 ± 2.57 mg/dL
CRF rats; 8 weeks, p.o. 50 mg/kg
  Serum urea nitrogen: 23.91 ± 4.00 mg/dL
CRF rats; 8 weeks, p.o. 150 mg/kg
  Serum creatinine: 1.76 ± 0.30 mg/dL
  Serum urea nitrogen: 21.96 ± 3.95 mg/dL
CRF rats; 8 weeks, p.o. 300 mg/kg
  Serum urea nitrogen: 20.76 ± 5.50 mg/dL
CRF rats; i.v. 2.5, 5, 25, 75, 150 mg/kg, p.o. 5, 10, 50, 150, 300 mg/kg
  serum creatinine and urea nitrogen levels vs model group: can all significantly reduce serum creatinine and urea nitrogen levels
CRF rats; week 4
  renal pathological changes (HE, PAS): alleviated in RA treated animals in a dose-dependent manner
